Experimental findings from patent US10772931B2, “Collagen binding synthetic peptidoglycans for treatment of endothelial dysfunction” (Purdue Research Foundation, priority 2014, dated 2020) are described below.

For data set [1], the system named is Human aortic endothelial cells (EC). The data set is described as follows: Metabolic activity (CellTiter 96 AQueous One, MTS), EC monolayers. The format is cell-based. To be noted: 10 ng/mL PDGF alone, 24 hrs. Here is the method: (§1) Human aortic endothelial cells (EC, Invitrogen) were cultured in Media 200 (M200, Invitrogen), supplemented with (all from Invitrogen) 2% fetal bovine serum (FBS), 1 μg/mL hydrocortisone, 10 ng/mL epidermal growth factor (EGF), 3 ng/mL basic fibroblast growth factor (FGF), and 10 μg/mL heparin. Unless otherwise noted, cells were initially seeded at 3×10^5 cells/cm^2 in Ibidi angiogenesis μ-slide (Ibidi) and allowed to proliferate for 24 hrs to establish a confluent monolayer, prior to the application of treatments to the EC cultures. Cells were used between passage numbers 3 and 8 for all assays and maintained at 37° C. with 5% CO2.
Cultures were incubated in the presence of 0, 0.01, 0.1, 1, or 10 μM DS-SILY20, with and without 10 ng/mL PDGF, for 24 hrs. The metabolic activity of the cells was determined using the CellTiter 96 AQueous One Solution Cell Proliferation Assay (Promega). Briefly, media was mixed with 3-(4,5-dimethylthiazol-2-yl)-5-(3-carboxymethoxyphenyl)-2-(4-sulfophenyl)-2H-tetrazolium, inner salt (MTS) and cultures were re-incubated for 2 hrs at 37° C. with 5% CO2. The media containing MTS was then transferred into a 96-well plate and absorbance at 490 nm was measured.

Data set [2] relates to hyperplastic EC-SMC co-cultures. The data set is described as follows: Metabolic activity (MTS), hyperplastic EC-SMC co-cultures. To be noted: PDGF stimulation alone. The format is cell-based, human. Here is the method:
(§2) To better mimic the physiology of the vessel wall and further investigate the effects of therapeutics on ECs in a biologically relevant manner, two EC-SMC co-culture models, designed to mimic either healthy or diseased vasculature, were established. ECs were cultured as stated previously. Human coronary artery smooth muscle cells (SMC, Invitrogen) were cultured in Media 231 (M231, Invitrogen), supplemented with (all from Invitrogen) 4.9% FBS, 2 ng/mL FGF, […], 5 ng/mL heparin, 5 μg/mL insulin, and 0.2 μg/mL bovine serum albumin. SMCs were seeded at 5×10^4 cells/cm^2 in Ibidi angiogenesis μ-slide and allowed to proliferate for 24 hrs to allow the formation of multilayered cell constructs. Media was removed and cultures were treated either with proliferative media, as described above, or contractile media to induce a quiescent phenotype, for 24 hrs. […]
(§3) Cultures were incubated in the presence of 0, 0.01, 0.1, 1, or 10 μM DS-SILY20, with and without 10 ng/mL PDGF, for 24 hrs. The metabolic activity of the cells was determined using the CellTiter 96 AQueous One Solution Cell Proliferation Assay (Promega). […] The media containing MTS was then transferred into a 96-well plate and absorbance at 490 nm was measured.

The subject of data set [3] is quiescent EC-SMC co-cultures. The data set is described as follows: Metabolic activity (MTS), quiescent EC-SMC co-cultures. Conditions: PDGF stimulation alone. The format is cell-based, human. Here is the method:
as §2, §3

For data set [4], the system named is PDGF receptor β (PDGFRβ). As to the kind of experiment: PDGFRβ phosphorylation in ECs (sandwich ELISA). In kind it is cell-based, human. Conditions: EC monolayers, PDGF treatment alone (10 ng/mL). As for the experimental part:
Cells were incubated in the presence of DS-SILY20 with and without 10 ng/mL PDGF for 60 mins prior to washing with ice cold TBS and […] solubilized in lysis buffer (1% NP-40 Alternative, 20 mM Tris, 137 mM NaCl, 10% glycerol, 2 mM EDTA, 1 mM activated sodium orthovanadate, 10 μg/mL Aprotinin, and 10 μg/mL Leupeptin). Lysates were processed at 4° C. for 30 mins prior to centrifugation for 5 mins at 2000×g to remove membrane components. Sandwich ELISAs (all from R&D systems) were utilized to measure total PDGF receptor β (PDGFRβ) and total phosphotyrosine PDGFRβ. All assays were performed following the manufacturer's protocol.
On the technique in general: ELISA stands for enzyme-linked immunosorbent assay.

The test system of data set [5] is Human aortic endothelial cells (EC). As to the kind of experiment: EC proliferation (Hoescht 33342 nuclei stain). In kind it is cell-based. Conditions: PDGF alone (10 ng/mL), 24 hrs. As for the experimental part:
as §1
Cultures were incubated in the presence of DS-SILY20 with or without 10 ng/mL PDGF for 24 hrs. Cells were nuclei stained with Hoescht 33342 and […] to determine the effect of DS-SILY20 and PDGF on cell proliferation.

Data set [6] shares this test system. As to the kind of experiment: EC migration on collagen (Oris Cell Migration Kit). Conditions: PDGF stimulation alone (10 ng/mL), 48 hrs. In kind it is cell-based. Here is the method: Fibrillar collagen was coated in wells of 96-well Oris Cell Migration Kit (Platypus Technologies, Madison). Stoppers were inserted into the plate to block an inner circular portion of the well. ECs were seeded at 5×10^3 cells/well and grown to confluence in the outer portion of the well. After 48 hrs, the stoppers in the wells were removed and ECs were stained with cell tracker green (Invitrogen). To determine the effects of treatments on migration alone, ECs were dosed with 25 μg/mL mitomycin C (Sigma) for 30 mins to inhibit proliferation. Various DS-SILY20 concentrations, solubilized in M200+LSGS, were then incubated on the exposed collagen surface in the inner portion of the well for 15 min at 37° C. Unbound DS-SILY20 was rinsed from the surface and cell media, with or without 10 ng/mL PDGF, was returned to the wells. ECs were allowed to migrate from the outer to the inner portion of the wells for 48 hrs. At 48 hrs, fluorescence measurements of the center of each well were measured using a mask provided with the migration kit such that only the treated inner circular portion of the well was measured.

In data set [7] the test system is interleukin-6 (IL-6). As to the kind of experiment: IL-6 expression in EC monolayers (Pro-Inflammatory I kit). The format is cell-based, human. To be noted: 10 ng/mL PDGF alone, 24 hrs. As for the experimental part: as §1
Cells were incubated in the presence of DS-SILY20 with or without 10 ng/mL PDGF for 24 hrs. Media was removed from the cultures and a Pro-Inflammatory I kit (Meso Scale Discovery) was used to analyze cytokine production from EC monolayers, hyperplastic co-cultures, and quiescent co-cultures according to manufacturer's instructions. Briefly, plates were warmed to room temperature and incubated with 25 μL of samples and standards for 2 hrs at room temperature with vigorous shaking. […] After washing three times with PBS with 0.05% Tween-20, 2× read buffer was added to the plate and imaged using a Sector Imager 2400A (Meso Scale Discovery). […] Data were analyzed using the MSD Discovery Workbench Software.

The subject of data set [8] is E-selectin. As to the kind of experiment: E-selectin production in EC monolayers (Vascular Injury Marker I kit). To be noted: 10 ng/mL PDGF alone. In kind it is cell-based, human. Here is the method:
as §1
(§4) Following treatment with DS-SILY20 with or without 10 ng/mL PDGF for 24 hrs, cells were washed twice with ice cold PBS and solubilized in lysis buffer (9 M urea, 4% CHAPS, and phosphatase inhibitor cocktail-1 in Millipore water). Lysates were processed at 4° C. for 30 mins prior to centrifugation for 20 mins at 18,000×g to remove membrane components. A BCA assay protein kit (Pierce) was used to quantify total protein. […] After washing three times with PBS with 0.05% Tween-20, 2× Read buffer was added to the plate and imaged using a Sector Imager 2400A. Data were analyzed using the MSD Discovery Workbench Software.

The test system of data set [9] is P-selectin. The data set is described as follows: P-selectin production in EC monolayers (Vascular Injury Marker I kit). In kind it is cell-based, human. To be noted: PDGF alone. As for the experimental part:
as §1, §4

The test system of data set [10] is thrombomodulin. As to the kind of experiment: Thrombomodulin production in EC monolayers (Vascular Injury Marker I kit). The format is cell-based, human. Conditions: PDGF alone. Here is the method:
as §1, §4

Data set [11] has as its system ERK-1/2. As to the kind of experiment: ERK-1/2 phosphorylation in EC monolayers. In kind it is cell-based, human. Conditions: 10 ng/mL PDGF alone, 10 mins. Here is the method: (§5) The phosphorylation of mitogen-activated protein kinases (MAPK), including extracellular signal-related kinase (ERK) and p38 MAPK (p38), was examined. Cells were incubated in the presence of DS-SILY20 with or without 10 ng/mL PDGF for […] prior to washing with ice cold tris buffered saline (TBS) and solubilized in lysis buffer (150 mM NaCl, 20 mM Tris, 1 mM EDTA, 1 mM EGTA, 1% Triton-X-100, plus protease inhibitors and phosphatase inhibitors). Lysates were processed at 4° C. for 30 mins prior to centrifugation for 20 mins at 18,000×g to remove membrane components. Phospho-p38 (Thr180/Tyr182) and phospho-ERK-1/2 (Thr/Tyr: 202/204; 185/187) levels were evaluated using the MAP Kinase Whole Cell Lysate kit (Meso Scale Discovery); Total p38 and total ERK-1/2 were determined via MAP Kinase (Total Protein) Whole Cell Lysate Kit (Meso Scale Discovery), according to manufacturer's instructions. Briefly, plates were warmed to room temperature and incubated with 25 μL of samples for 3 hrs at room temperature with vigorous shaking. Following gentle rinsing of the wells, the detection antibody was then added and incubated for 1 hr at room temperature with vigorous shaking. After washing three times with TBS, 2× read buffer was added to the plate and imaged using a Sector Imager 2400A. Data were analyzed using the MSD Discovery Workbench Software. […]

Data set [12] relates to p38 MAPK (p38). As to the kind of experiment: p38 MAPK phosphorylation in EC monolayers. The format is cell-based, human. Conditions: PDGF alone. Here is the method:
as §5

In data set [13] the test system is interferon-γ (IFN-γ). The data set is described as follows: IFN-γ production, hyperplastic co-cultures. The format is cell-based, human. Conditions: 10 ng/mL PDGF alone. Here is the method:
as §2
(§6) Cells were incubated in the presence of DS-SILY20 with or without 10 ng/mL PDGF for 24 hrs. […] After washing three times with PBS with 0.05% Tween-20, 2× read buffer was added to the plate and imaged using a Sector Imager 2400A (Meso Scale Discovery). […] Data were analyzed using the MSD Discovery Workbench Software.

Data set [14] concerns interleukin-6 (IL-6). The data set is described as follows: IL-6 production, hyperplastic co-cultures. In kind it is cell-based, human. Conditions: 10 ng/mL PDGF alone. Here is the method:
as §2, §6

For data set [15], the system named is tumor necrosis factor-α (TNF-α). The data set is described as follows: TNF-α production, hyperplastic co-cultures. The format is cell-based, human. Conditions: 10 ng/mL PDGF alone. As for the experimental part: as §2, §6
Data set [16] has as its system interferon-γ (IFN-γ). As to the kind of experiment: IFN-γ production, quiescent co-cultures. The format is cell-based, human. To be noted: 10 ng/mL PDGF alone. Here is the method:
as §2, §6

Data set [17] has as its system tumor necrosis factor-α (TNF-α). As to the kind of experiment: TNF-α production, quiescent co-cultures. In kind it is cell-based, human. To be noted: 10 ng/mL PDGF alone. As for the experimental part: as §2, §6
The subject of data set [18] is E-selectin. As to the kind of experiment: E-selectin production, hyperplastic co-cultures. In kind it is cell-based, human. Conditions: PDGF alone. As for the experimental part: as §2
(§7) Following treatment with DS-SILY20 with or without 10 ng/mL PDGF for 24 hrs, cells were washed twice with ice cold PBS and solubilized in lysis buffer (9 M urea, 4% CHAPS, and phosphatase inhibitor cocktail-1 in Millipore water). […] A BCA assay protein kit (Pierce) was used to quantify total protein. […] After washing three times with PBS with 0.05% Tween-20, 2× Read buffer was added to the plate and imaged using a Sector Imager 2400A. Data were analyzed using the MSD Discovery Workbench Software.

Data set [19] relates to P-selectin. The data set is described as follows: P-selectin production, hyperplastic co-cultures. The format is cell-based, human. To be noted: PDGF alone. As for the experimental part: as §2, §7
Data set [20] deals with thrombomodulin. The data set is described as follows: Thrombomodulin production, hyperplastic co-cultures. To be noted: PDGF alone. In kind it is cell-based, human. Here is the method: as §2, §7
The subject of data set [21] is E-selectin. The data set is described as follows: E-selectin production, quiescent co-cultures. In kind it is cell-based, human. Conditions: PDGF alone. Here is the method: as §2, §7
The subject of data set [22] is P-selectin. As to the kind of experiment: P-selectin production, quiescent co-cultures. In kind it is cell-based, human. To be noted: PDGF alone. As for the experimental part:
as §2, §7

For data set [23], the system named is thrombomodulin. As to the kind of experiment: Thrombomodulin production, quiescent co-cultures. In kind it is cell-based, human. Conditions: PDGF alone. As for the experimental part: as §2, §7

For the substance platelet-derived growth factor [PDGF], the “metabolic activity of ECs” value in [1] is given as “did not influence”. For the same substance, the metabolic activity entry in data set [2] and in data set [3] was “not impacted” throughout. Also, the phospho-PDGFRβ levels result in data set [4] is “significantly increased”. Further, the EC proliferation entry in data set [5] is recorded as “significantly increased”. The “enhancement of EC migration” value in [6] is 40.3%. For the same substance, the “IL-6 production vs no treatment controls” value in data set [7] is given as “did not alter”. Also, the “E-selectin production vs no treatment controls” value in [8] is “did not alter”. Also, the P-selectin expression entry in data set [9] is on record as “induced”. Moreover, the thrombomodulin expression result in [10] was “induced”. In addition, the “ERK-1/2 phosphorylation vs no treatment controls” value in data set [11] was “increased”. Moreover, in data set [12], the “phosphorylation of p38” value is “did not alter”. Also, the “production of IFN-γ vs no treatment controls” value in data set [13] and in data set [16] was “significantly increased” each time. Further, the “production of IL-6 vs no treatment controls” value in [14] is listed as “significantly increased”. For the same substance, the “production of TNF-α vs no treatment controls” value in data set [15] and in [17] was “significantly increased” throughout. Moreover, the E-selectin expression result in data set [18] and in data set [21] was “did not stimulate” each time. For the same substance, the P-selectin production result in data set [19] and in data set [22] was “significantly increased” in each case. Also, the thrombomodulin production result in data set [20] and in data set [23] was “significantly increased” each time.
